Series [1] concerns T. b. brucei. Nature of the series: Trypanosome proliferation assay. The format is cell-based, Trypanosoma brucei brucei. As to conditions: geometric mean of two or more determinations, standard cell viability (resazurin) assay, read-out: EC50 T. b. brucei. On the procedure: (§1) Trypanosome and MRC5 proliferation assay: Measurement of inhibition of the proliferation of MRC5 cells (human lung fibroblasts) and T. brucei bloodstream-stage cells was performed using a modification of a cell viability assay previously described.[35, 36] Compounds ([…] to 0.5 nM) were incubated with 2×10^3 cells per well in 0.2 mL of the appropriate culture medium (MEM with 10 % foetal bovine serum for MRC5 cells) in clear 96-well plates. Plates were incubated at 37 °C in the presence of 5 % CO2 for 69 h. Resazurin was then added to a final concentration of 50 μM, and plates were incubated as above for a further 4 h before being read on a BioTek Flx800 fluorescence plate reader.
In general terms: The colour change of resazurin is a common sign of viable cells or microbes.

Series [2] deals with MRC5 cells (human lung fibroblasts). Put plainly: MRC5 proliferation assay. As to conditions: geometric mean of two or more determinations. The class given is cell-based. The procedure:
as §1

The nature of series [3]: Intrinsic clearance in mouse liver microsomes. The class given is in vitro ADME. As to conditions: mouse hepatic microsomes, 0.5 μM compound. The procedure:
Intrinsic clearance experiments: Test compound (0.5 μM) was incubated with female CD1 mouse liver microsomes (Xenotech LLC; 0.5 mg mL^−1 50 mM potassium phosphate buffer, pH 7.4), and the reaction started with the addition of excess NADPH (8 mg mL^−1 50 mM potassium phosphate buffer, pH 7.4). Immediately, at t0, then at 3, 6, 9, 15, and 30 min an aliquot (50 μL) of the incubation mixture was removed and mixed with MeCN (100 μL) to stop the reaction. Internal standard was added to all samples, the samples were centrifuged to sediment precipitated protein, and the plates were then sealed prior to UPLC–MS/MS analysis using a Quattro Premier XE instrument (Waters Corp., USA). XLfit (IDBS, UK) was used to calculate the exponential decay and consequently the rate constant (k) from the ratio of peak area of test compound to internal standard at each time point. The rate of intrinsic clearance [CLint, mL min^−1 (g liver)^−1] of each test compound was then calculated with Equation (3): […]
in which V [mL (mg protein)^−1] is the incubation volume per mg protein added, and microsomal protein yield is taken as 52.5 mg protein per gram of liver. Verapamil (0.5 μM) was used as a positive control to confirm acceptable assay performance.
For orientation: Liver microsomes are vesicles of endoplasmic reticulum, rich in cytochrome P450 enzymes.

A short description of series [4]: Kinetic aqueous solubility (laser nephelometry). The format is physicochemical. As to conditions: Milli-Q water with 2.5% DMSO, kinetic from dmso stock, range 250–12 μM, read-out: Aq. Sol. (aqueous kinetic solubility). The procedure: Solubility experiments: The kinetic aqueous solubility of the test compounds was measured using laser nephelometry. Compounds were subject to serial dilution from 10 mM to 0.5 mM in DMSO. An aliquot was then mixed with Milli-Q H2O to obtain an aqueous dilution plate with a final concentration range of 250–12 μM, with a final DMSO concentration of 2.5 %. Triplicate aliquots were transferred to a flat-bottomed polystyrene plate which was immediately read on the NEPHELOstar (BMG Lab Technologies). The amount of laser scatter caused by insoluble particulates (relative nephelometry units, RNU) was plotted against compound concentration using a segmental regression fit, with the point of inflection being quoted as the compounds′ aqueous solubility (in μM).

Series [5] is described as follows: Plasma protein binding (equilibrium dialysis). As to conditions: mouse plasma. The class given is in vitro ADME. The procedure: Plasma protein binding experiments: In brief, a 96-well equilibrium dialysis apparatus was used to determine the free fraction in plasma for each compound (HT Dialysis LLC, Gales Ferry, CT, USA). Membranes (12-14 kDa cutoff) were conditioned in deionised H2O for 60 min, followed by conditioning in 80:20 deionised H2O/EtOH for 20 min, and then rinsed in isotonic buffer before use. Female CD1 mouse plasma was removed from the freezer and allowed to thaw on the day of experiment. Thawed plasma was then centrifuged (Allegra […], Beckman Coulter, USA), spiked with test compound (10 μg g^-1), and 150 μL aliquots (n=6 replicate determinations) loaded into the 96-well equilibrium dialysis plate. Dialysis against isotonic buffer (150 μL) was carried out for 5 h in a temperature-controlled incubator at ∼37 °C (Barworld Scientific Ltd., UK) using an orbital microplate shaker at 125 rpm (Barworld Scientific). At the end of the incubation period, aliquots of plasma or buffer were transferred to micronic tubes (Micronic B.V., the Netherlands), and the composition in each tube was balanced with control fluid such that the volume of buffer to plasma is the same. Sample extraction was performed by the addition of 400 μL MeCN containing an appropriate internal standard. Samples were allowed to mix for 1 min and then centrifuged at 3000 rpm in 96-well blocks for 15 min (Allegra […], Beckman Coulter, USA). All samples were analysed by UPLC-MS/MS on a Quattro Premier XE Mass Spectrometer (Waters Corp.). The unbound fraction was determined as the ratio of the peak area in buffer to that in plasma.
For orientation: In equilibrium dialysis free small molecules cross a membrane that holds back macromolecules.

A short description of series [6]: In vivo pharmacokinetics in mice. On the set-up: species or system female NMRI mice. As to conditions: mouse, whole blood, ip, blood; for Tmax: female, NMRI; for AUC(0-t): read-out: AUC(0–8) (converted). On the procedure: In vivo pharmacokinetics in mice: Compounds 1 and 28 were dosed orally by gavage as a solution at 5 mg free base per kg or 20 mg free base per kg, respectively (dose volume: 5 or 10 mL kg^−1, dose vehicle: 5 % DMSO, 40 % PEG400, 55 % distilled H2O) to female NMRI mice (n=3). Compounds 28, 38, and 56 were dosed as a bolus solution intraperitoneally at 10 (56) or 20 (28 and 38) mg free base per kg (dose volume: 10 mL kg^−1, dose vehicle: 5 % DMSO, 40 % PEG400, 55 % sterile H2O) to female NMRI mice (n=3). Female NMRI mice were chosen, as these represent the sex and strain used for the stage-1 and stage-2 HAT efficacy models. Blood samples were taken from each mouse at 5 (i.p. only), 15 and 30 min, 1, 2, 4, 6 and 8 h post-dose and mixed with two volumes of distilled H2O. After suitable sample preparation, the concentration of each compound in blood was determined by UPLC–MS/MS using a Quattro Premier XE (Waters, USA). Pharmacokinetic parameters were derived from the mean blood concentration time curve using PKsolutions software ver. 2.0 (Summit Research Services, USA).

For series [7], the system named is T. brucei bloodstream-stage cells. Put plainly: Static–cidal (SC) assay. The format is cell-based, Trypanosoma brucei brucei. As to conditions: for EC50: 48 h. The procedure:
Determination of cidality against T. brucei bloodstream-stage cells was performed using a static–cidal (SC) assay as previously reported.[26] Briefly, bloodstream-form trypanosomes were seeded into 384-well plates at 4×10^5 mL^−1 (50 μL per well), followed by immediate addition of resazurin (50 μM final) to one of the plates, and all plates were incubated at 37 °C, 5 % CO2. After 4 h the t0 plate was read using a PerkinElmer Victor 3 plate reader (λex=528 nm, λem=590 nm). The second plate was processed in the same manner 20 h later, and at 44 h the last plate was processed. The minimum cidal concentration (MCC) is defined as the lowest concentration of drug that results in a decrease of resorufin signal over time. For dose–response curves from this assay either a monophasic or a biphasic equation was used, depending on which one provided the best fit. For monophasic fits, the following four-parametric equation [Eq. (1)] was used:
in which A=percent inhibition at bottom, B=percent inhibition at top, C=EC50, D=slope, x=inhibitor concentration, and y=percent inhibition. Equation (2) was used for biphasic fits:
for which A=percent inhibition at mid-plateau, B=slope, C=log[SC EC50(1)], D=log[SC EC50(2)]. Thus SC EC50(1) is the EC50 for the first phase of the curve, and SC EC50(2) is that for the second phase. Inhibition at the bottom of the curve is fixed at 0 % and at the top, 100 %.

A word on the EC50: it is the concentration at which the effect is half-maximal. By kinetic solubility is commonly meant solubility judged after dilution from a stock solution rather than from solid. As a reminder, the Tmax is the time from dosing to the highest level. A word on the Cmax: it is the maximum level reached in the sampled fluid or tissue. A word on the half-life: it is the time in which the quantity being followed falls by half.

Structures are written as SMILES. ≈ marks a conversion by molar mass, not a printed value. Where two headings read alike, the source gives them in different places. Some results are limits rather than exact numbers.

As for `O=c1[nH]c2ncc(-c3ccccc3)nc2n1C1CCOCC1` [Compound 38], in series [1] (Trypanosoma brucei), the EC50 was 100 nM. The compound also returned an EC50 in series [2] of more than 50000 nM. Also, in series [3], the CLint is 1.6 mL/min/g. Also, the kinetic solubility in series [4] turned out to be 55 µM (≈ 16.3 µg/mL). For the same compound, the “protein binding (unbound)” value in series [5] was determined as 15 % unbound. Further, the Tmax in series [6] (20 mg/kg, 20 mg kg^−1, female NMRI mice) is 2 h. Further, in series [6] (20 mg kg^−1, female NMRI mice), the peak level (Cmax) was 83 ng/mL, the half-life was 2.2 h and the AUC(0-t) was 367 ng·h/mL.
For `O=c1[nH]c2ncc(N3CCCCC3)cc2n1C1CCCCC1` [Compound 56], the EC50 was 70 nM in series [7] (Trypanosoma brucei, static cidal EC50, first site/phase, read-out: SC EC50(1)); more than 50000 nM in series [7] (Trypanosoma brucei, static cidal EC50, second site/phase, read-out: SC EC50(2)); 93 nM in series [1] (Trypanosoma brucei); 90 nM in series [1]; more than 50000 nM in series [2]. For the same compound, in series [7] (Trypanosoma brucei, static–cidal assay in triplicate, read-out: MCC (minimal cidal concentration)), the MCC was more than 50 µM. Besides, the “mode of antiparasitic effect (in words)” value in series [7] (text and figure legend, at concentrations tested) was “growth-slowing or static behaviour”. Further, the CLint in series [3] is 3.6 mL/min/g. Moreover, the kinetic solubility in series [4] is more than 250 µM. Also, the fraction unbound at 5 h, 10 μg g^−1 in series [5] (female, CD1, equilibrium dialysis, read-out: PPB) worked out at 0.11. In addition, the Tmax in series [6] (10 mg/kg, 10 mg kg^−1, female NMRI mice) was 0.25 h. In series [6] (10 mg kg^−1, female NMRI mice), this compound registered a Cmax of 580 ng/mL. Moreover, in series [6] (10 mg kg^−1, female NMRI mice), the half-life is 0.7 h. For the same compound, the AUC(0-t) in series [6] (10 mg kg^−1, female NMRI mice) was 883 ng·h/mL.

(Values after publication PMC4648050, “Discovery of Inhibitors of Trypanosoma brucei by Phenotypic Screening of a Focused Protein Kinase Library” (Chemmedchem, 2015).)
